The target of the first assay is Rat α7 (Rattus norvegicus (Rat), UniProt Q05941).
Rat α7, sequence (Q05941 23-502 limits assumed): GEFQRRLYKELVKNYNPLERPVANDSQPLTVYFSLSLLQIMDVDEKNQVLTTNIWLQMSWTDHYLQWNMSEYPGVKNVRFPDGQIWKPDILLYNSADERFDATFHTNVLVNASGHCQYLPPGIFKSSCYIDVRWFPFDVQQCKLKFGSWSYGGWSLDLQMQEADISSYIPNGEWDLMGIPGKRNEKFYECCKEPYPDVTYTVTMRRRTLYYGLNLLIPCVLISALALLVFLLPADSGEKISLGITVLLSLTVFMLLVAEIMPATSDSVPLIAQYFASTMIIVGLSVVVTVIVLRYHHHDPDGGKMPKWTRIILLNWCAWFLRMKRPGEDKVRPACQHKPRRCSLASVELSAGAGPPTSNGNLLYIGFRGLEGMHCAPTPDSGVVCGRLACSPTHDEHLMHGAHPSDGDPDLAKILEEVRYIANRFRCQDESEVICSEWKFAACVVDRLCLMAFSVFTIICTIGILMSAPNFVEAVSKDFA
Test: not given
The class given is binding. The following applies: range printed after the value. As to the method: (§1) The ligand binding data were analyzed by means of nonlinear regression using Prism version 5 (GraphPad Software, Inc., La Jolla, Calif.). The Ki values were calculated from the experimental IC50 values using the Cheng-Prusoff equation for a single population of competitive sites: Ki=IC50/[1+(L/Kd)], where L is the concentration of radioligand used in each experiment and the Kd values were determined by saturation binding experiment. All of the assays were performed in duplicate and repeated at least two-three times.
α3β4 nAChRs, sequence (P32297 32-505): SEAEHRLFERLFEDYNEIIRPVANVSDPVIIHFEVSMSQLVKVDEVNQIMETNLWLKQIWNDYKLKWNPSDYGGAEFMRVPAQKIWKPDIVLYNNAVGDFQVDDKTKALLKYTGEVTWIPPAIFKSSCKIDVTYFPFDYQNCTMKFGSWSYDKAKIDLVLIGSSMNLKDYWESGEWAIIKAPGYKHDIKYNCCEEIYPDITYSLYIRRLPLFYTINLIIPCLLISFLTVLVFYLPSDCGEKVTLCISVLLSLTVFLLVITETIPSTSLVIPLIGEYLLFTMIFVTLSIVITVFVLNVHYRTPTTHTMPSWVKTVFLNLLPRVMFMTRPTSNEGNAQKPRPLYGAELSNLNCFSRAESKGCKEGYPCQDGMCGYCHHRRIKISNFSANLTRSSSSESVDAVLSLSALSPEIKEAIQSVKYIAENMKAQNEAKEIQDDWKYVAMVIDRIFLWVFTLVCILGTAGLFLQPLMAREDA
α3β4 nAChRs, sequence (P30926 22-498): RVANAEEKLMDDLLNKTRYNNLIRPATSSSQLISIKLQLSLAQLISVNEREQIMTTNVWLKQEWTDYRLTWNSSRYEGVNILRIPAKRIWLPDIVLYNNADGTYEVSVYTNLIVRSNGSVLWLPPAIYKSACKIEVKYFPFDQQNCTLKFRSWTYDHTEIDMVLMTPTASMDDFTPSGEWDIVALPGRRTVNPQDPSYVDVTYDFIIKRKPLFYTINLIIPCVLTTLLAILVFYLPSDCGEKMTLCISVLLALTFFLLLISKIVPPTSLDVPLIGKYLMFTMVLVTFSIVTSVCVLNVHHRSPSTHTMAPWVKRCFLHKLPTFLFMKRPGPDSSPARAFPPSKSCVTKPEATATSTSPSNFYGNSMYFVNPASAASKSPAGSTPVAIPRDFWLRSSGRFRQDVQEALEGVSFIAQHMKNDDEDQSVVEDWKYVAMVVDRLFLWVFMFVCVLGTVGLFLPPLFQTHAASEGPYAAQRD
α4β2 nAChR, sequence (P43681 29-627 limits assumed): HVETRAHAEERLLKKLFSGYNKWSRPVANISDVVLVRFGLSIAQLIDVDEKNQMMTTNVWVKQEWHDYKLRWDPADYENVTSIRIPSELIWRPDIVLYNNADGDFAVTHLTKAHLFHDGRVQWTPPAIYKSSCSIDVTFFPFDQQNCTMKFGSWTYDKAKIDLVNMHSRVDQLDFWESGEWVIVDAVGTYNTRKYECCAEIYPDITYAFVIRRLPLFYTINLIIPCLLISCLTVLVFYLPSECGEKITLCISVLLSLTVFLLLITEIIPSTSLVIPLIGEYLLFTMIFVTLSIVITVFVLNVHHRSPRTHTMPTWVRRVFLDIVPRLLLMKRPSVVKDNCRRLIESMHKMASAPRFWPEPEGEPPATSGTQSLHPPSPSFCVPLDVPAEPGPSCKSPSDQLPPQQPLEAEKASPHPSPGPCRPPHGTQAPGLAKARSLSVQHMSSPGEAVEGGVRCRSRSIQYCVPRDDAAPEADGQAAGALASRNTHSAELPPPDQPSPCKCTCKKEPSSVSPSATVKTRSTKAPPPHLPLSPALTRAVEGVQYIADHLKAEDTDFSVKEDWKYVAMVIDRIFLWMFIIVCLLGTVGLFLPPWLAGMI
α4β2 nAChR, sequence (P17787 26-502 limits assumed): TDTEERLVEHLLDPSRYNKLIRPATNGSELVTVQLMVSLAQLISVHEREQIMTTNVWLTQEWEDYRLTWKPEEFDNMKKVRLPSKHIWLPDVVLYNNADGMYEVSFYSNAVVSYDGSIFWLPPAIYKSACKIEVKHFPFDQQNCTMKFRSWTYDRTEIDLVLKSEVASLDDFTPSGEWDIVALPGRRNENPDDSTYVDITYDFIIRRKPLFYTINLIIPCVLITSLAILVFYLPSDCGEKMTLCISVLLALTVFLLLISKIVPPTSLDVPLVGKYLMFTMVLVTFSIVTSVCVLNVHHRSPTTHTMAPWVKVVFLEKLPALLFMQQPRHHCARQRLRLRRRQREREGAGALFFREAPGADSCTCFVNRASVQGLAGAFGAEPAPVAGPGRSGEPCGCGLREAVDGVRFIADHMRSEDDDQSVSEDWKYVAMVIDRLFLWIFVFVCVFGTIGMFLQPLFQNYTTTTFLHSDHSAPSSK
(α4)2(β2)3 nAChRs, sequence (P43681 29-627): as the sequence (P43681 29-627 limits assumed) above
(α4)2(β2)3 nAChRs, sequence (P17787 26-502): as the sequence (P17787 26-502 limits assumed) above
(α4)3(β2)2 nAChRs, sequence (P43681 29-627): as the sequence (P43681 29-627 limits assumed) above
(α4)3(β2)2 nAChRs, sequence (P17787 26-502): as the sequence (P17787 26-502 limits assumed) above
α3β4 nAChR, sequence (P32297 32-505 limits assumed): as the sequence (P32297 32-505) above
α3β4 nAChR, sequence (P30926 22-498 limits assumed): as the sequence (P30926 22-498) above
The compound `O=c1cccc2n1C[C@@H]1CNC[C@H]2C1` [Cytisine, cytisine] registered a Ki of 662 nM.

The target in the next assay is (α4)3(β2)2 nAChRs (Homo sapiens (Human), UniProt P17787+P43681). The experiment in a line: Maximal gating efficacy on (α4)3(β2)2 nAChRs in Xenopus oocytes, two electrode voltage clamp. The note with it: (α4)3(β2)2, low sensitivity stoichiometry; maximal current relative to 1 mM ACh. The class given is cell-based. How it is done:
(§2) Compounds of the invention were tested for effects on the function of human α4β2, α3β4 and α7 nicotinic acetylcholine receptors (nAChRs) expressed heterologously in Xenopus oocytes. […] Expression in oocytes was obtained as follows: pCI (Promega, UK) plasmid containing human α4, β2, β4 or α7 complementary DNA were injected as previously described (Moroni et al., 2006). To express (α4)3(β2)2 nACh receptors, a mixture of 10α4:1β2 cDNAs was injected into the nucleus of oocytes, whereas for (α4)2(β2)3 receptors the cDNA ratio injected was 1α4:10β2.
(§3) Functional studies: Recordings were performed manually using a Geneclamp amplifier (Molecular Devices, USA) or using an automated HiClamp system. In both cases the oocytes were impaled with two electrodes filled with 3 M KCl and the cells were held at −60 mV throughout the experiments.
(§4) Oocyte isolation and two-electrode voltage-clamp recordings on oocytes were carried out as previously described (Moroni et al., 2006; Carbone et al., 2009). […] A minimum interval of 5 min was allowed between agonist applications to ensure reproducible recordings. Oocytes were exposed to increasing concentrations of the compounds until no further increases in the response amplitude were obtained. This concentration was taken as the concentration that causes maximal responses on the receptors tested. The data summarised in Tables 1-4 were obtained from at least 5 experiments carried out on oocytes obtained from at least three different donors.
Maximal gating efficacy of the compounds: The concentration of the compounds of the invention causing maximal activation of the (α4)3(β2)2 nAChRs expressed heterologously in Xenopus oocytes was determined using two electrode voltage clamping.
(In general: In two-electrode clamp one electrode senses voltage and the other passes current.)
As to `O=c1cc(Br)cc2n1CC1CNC[C@@H]2C1` (single isomer, unassigned; (-)) [Compound 62, (−)4-Bromocytisine], the “Relative efficacy (ACh)” value stood at 0.057 ± 0.007.
Consider `COc1cc2n(c(=O)c1)CC1CNC[C@@H]2C1` (single isomer, unassigned; (-)) [Compound 69, (−)4-Methoxycytisine], for which the “Relative efficacy (ACh)” value was 0.071 ± 0.009.
`O=c1cccc2n1C[C@@H]1CNC[C@H]2C1` [Cytisine, cytisine]: the “Relative efficacy (ACh)” value is 0.19 ± 0.07.
On the same count and under the same terms, in the case of `CC(=O)Nc1cc2n(c(=O)c1)CC1CNC[C@@H]2C1.Cl` (single isomer, unassigned; (+)) [Compound 94, (+)4-(N-acetylamino)cytisine] it was 0.153 ± 0.006; in that of `O=c1cc(O)cc2n1CC1CNC[C@@H]2C1` (single isomer, unassigned; (+)) [Compound 67, (+)4-Hydroxycytisine], 0.07 ± 0.009.

The next assay addresses α4β2 nAChR (Homo sapiens (Human), UniProt P17787+P43681).
Test: not given
The class given is binding. The note with it: human α4β2 in HEK 293, 0.25 nM [3H]-epibatidine; range printed after the value. As to the method:
(§5) HEK 293 cells were grown in Dulbecco's modified Eagle medium supplemented with 10% fetal bovine serum, 1% L-Glutamine, 100 units/ml penicillin G, and 100 μg/streptomycin in a humidified atmosphere containing 10% CO2. The cDNAs encoding α3 and β4 or α4 and β2 (were transfected into the HEK 293 cells at 30% confluency). The cell transfections were carried out in 100 mm Petri dishes using 30 μL of JetPEI™ (Polypus, France) (1 mg/ml, pH 7.2) and 3 μg of each cDNA. After 24 h transfection, the cells were collected, washed with PBS by centrifugation, and used for binding analysis.
(§6) [^3H]-epibatidine saturation binding experiments to HEK transfected α3β4 or α4β2 receptors were performed by means of overnight incubation at 4° C. at concentrations ranging from 0.005 to 1 nM in a buffer containing 50 mM Tris-HCl, pH 7, 150 mM NaCl, 5 mM KCl, 1 mM MgCl2, 2.5 mM CaCl2 and 2 mg/ml BSA, in the presence (aspecific binding) or absence (total binding) of 100 nM cold epibatidine. Specific ligand binding was defined as total binding minus the binding in the presence of 100 nM cold epibatidine.
(§7) After incubation, the membranes of HEK cells transfected with α4β2* or α3β4 subtypes were washed by filtration on GFC filters with ice-cold PBS. The GFC filters were pre-soaked in polyethylenimine and filtered through an harvester apparatus. [^3H]-epibatidine binding was determined by means of liquid scintillation counting in a beta counter.
as §1
Regarding `O=c1cccc2n1C[C@@H]1CNC[C@H]2C1` [Cytisine, cytisine], the Ki was 1.27 nM.

Still in this assay, the particulars now being: ratio of Ki values.
Consider `O=c1cc(Br)cc2n1CC1CNC[C@@H]2C1` (single isomer, unassigned; (-)) [Compound 62, (−)4-Bromocytisine], for which the “Ratio α3β4/α4β2” value is 303.4.
Still for that read-out and setting: as for `COc1cc2n(c(=O)c1)CC1CNC[C@@H]2C1` (single isomer, unassigned; (-)) [Compound 69, (−)4-Methoxycytisine], the figure is 206.1; as for `O=c1cccc2n1C[C@@H]1CNC[C@H]2C1` [Cytisine, cytisine], 81.1; as for `CC(=O)Nc1cc2n(c(=O)c1)CC1CNC[C@@H]2C1.Cl` (single isomer, unassigned; (+)) [Compound 94, (+)4-(N-acetylamino)cytisine], 751.0.
Same read-out and setting: as for `O=c1cc(O)cc2n1CC1CNC[C@@H]2C1` (single isomer, unassigned; (+)) [Compound 67, (+)4-Hydroxycytisine], the figure is 397.8.

A further assay has as its target α3β4 nAChR (Homo sapiens (Human), UniProt P30926+P32297).
Test: not given
It is filed as binding. The following applies: human α3β4 in HEK 293, 0.5 nM [3H]-epibatidine; range printed after the value. As to the method:
as §5, §6, §7, §1
In the case of `O=c1cccc2n1C[C@@H]1CNC[C@H]2C1` [Cytisine, cytisine], the Ki was 103 nM.

A further assay deals with α7 nAChRs (Homo sapiens (Human), UniProt P36544).
α7 nAChRs, sequence (P36544 23-502): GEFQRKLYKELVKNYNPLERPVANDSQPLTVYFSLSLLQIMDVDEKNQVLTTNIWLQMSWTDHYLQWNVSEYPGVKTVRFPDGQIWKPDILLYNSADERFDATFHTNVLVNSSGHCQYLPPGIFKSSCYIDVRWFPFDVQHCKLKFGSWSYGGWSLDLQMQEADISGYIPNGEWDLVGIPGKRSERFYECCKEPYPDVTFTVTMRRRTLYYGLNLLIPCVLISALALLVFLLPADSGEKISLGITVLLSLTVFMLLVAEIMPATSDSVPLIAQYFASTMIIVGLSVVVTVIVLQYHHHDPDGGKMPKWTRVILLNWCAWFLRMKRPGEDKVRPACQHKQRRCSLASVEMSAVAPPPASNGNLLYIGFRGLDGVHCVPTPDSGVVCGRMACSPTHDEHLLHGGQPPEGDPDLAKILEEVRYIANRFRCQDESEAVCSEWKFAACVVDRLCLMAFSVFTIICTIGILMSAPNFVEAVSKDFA
Test: not given
It is filed as cell-based. The following applies: compounds at 100 μM, relative to 1 mM ACh. As to the method: as §2, §3, §4
Regarding `O=c1cc(Br)cc2n1CC1CNC[C@@H]2C1` (single isomer, unassigned; (-)) [Compound 62, (−)4-Bromocytisine], the “Relative efficacy (ACh)” value is on record as 0.28 ± 0.01.
Same read-out and setting: in the case of `COc1cc2n(c(=O)c1)CC1CNC[C@@H]2C1` (single isomer, unassigned; (-)) [Compound 69, (−)4-Methoxycytisine] it was 0.061 ± 0.09; in that of `CC(=O)Nc1cc2n(c(=O)c1)CC1CNC[C@@H]2C1.Cl` (single isomer, unassigned; (+)) [Compound 94, (+)4-(N-acetylamino)cytisine], 0.0001 ± 0.00001.
`O=c1cc(O)cc2n1CC1CNC[C@@H]2C1` (single isomer, unassigned; (+)) [Compound 67, (+)4-Hydroxycytisine]: the “Relative efficacy (ACh)” value is “No response at 100 μM”.

A further assay concerns the target α3β4 nAChRs (Homo sapiens (Human), UniProt P30926+P32297). Nature of the assay: Maximal gating efficacy on α3β4 nAChRs in Xenopus oocytes, two electrode voltage clamp. It is filed as cell-based. The note with it: maximal current relative to 1 mM ACh. As to the method:
as §2, §3, §4
Maximal gating efficacy of the compounds on α3β4 nAChRs: The concentration of the compounds causing maximal activation of α3β4 nAChRs expressed heterologously in Xenopus oocytes was determined using two electrode voltage clamping.
Turning to `O=c1cc(Br)cc2n1CC1CNC[C@@H]2C1` (single isomer, unassigned; (-)) [Compound 62, (−)4-Bromocytisine], the “Relative efficacy (ACh)” value is on record as 0.184 ± 0.046.
The same measure, in the same setting: as for `COc1cc2n(c(=O)c1)CC1CNC[C@@H]2C1` (single isomer, unassigned; (-)) [Compound 69, (−)4-Methoxycytisine], the figure is 0.044 ± 0.059; as for `O=c1cccc2n1C[C@@H]1CNC[C@H]2C1` [Cytisine, cytisine], 0.54 ± 0.01.
The same measure, in the same setting: as for `CC(=O)Nc1cc2n(c(=O)c1)CC1CNC[C@@H]2C1.Cl` (single isomer, unassigned; (+)) [Compound 94, (+)4-(N-acetylamino)cytisine], the figure is 0.055 ± 0.047.
Same read-out and setting: as for `O=c1cc(O)cc2n1CC1CNC[C@@H]2C1` (single isomer, unassigned; (+)) [Compound 67, (+)4-Hydroxycytisine], the figure is 0.047 ± 0.036.

A further assay addresses (α4)2(β2)3 nAChRs (Homo sapiens (Human), UniProt P17787+P43681). The experiment in a line: Maximal gating efficacy on (α4)2(β2)3 nAChRs in Xenopus oocytes, two electrode voltage clamp. The note with it: (α4)2(β2)3, high sensitivity receptors; maximal current relative to 1 mM ACh. The class given is cell-based. As to the method:
as §2, §3, §4
Maximal gating efficacy of compounds on (α4)2(β2)3 receptors (high sensitivity receptors): The concentration of the compounds causing maximal activation of the (α4)2(β2)3 nAChRs expressed heterologously in Xenopus oocytes was determined using two electrode voltage clamping.
Regarding `O=c1cc(Br)cc2n1CC1CNC[C@@H]2C1` (single isomer, unassigned; (-)) [Compound 62, (−)4-Bromocytisine], the “Relative efficacy (ACh)” value turned out to be 0.009 ± 0.0001.
Still for that read-out and setting: in the case of `COc1cc2n(c(=O)c1)CC1CNC[C@@H]2C1` (single isomer, unassigned; (-)) [Compound 69, (−)4-Methoxycytisine] it was 0.009 ± 0.0008.
Still for that read-out and setting: as for `O=c1cccc2n1C[C@@H]1CNC[C@H]2C1` [Cytisine, cytisine], the figure is 0.02 ± 0.001; as for `CC(=O)Nc1cc2n(c(=O)c1)CC1CNC[C@@H]2C1.Cl` (single isomer, unassigned; (+)) [Compound 94, (+)4-(N-acetylamino)cytisine], 0.001 ± 0.0006.
Same read-out and setting: in the case of `O=c1cc(O)cc2n1CC1CNC[C@@H]2C1` (single isomer, unassigned; (+)) [Compound 67, (+)4-Hydroxycytisine] it was 0.005 ± 0.0001.

For a further assay, the target named is Human α7 (Homo sapiens (Human), UniProt P36544).
Human α7, sequence (P36544 23-502 limits assumed): as the sequence (P36544 23-502) above
Test: not given
It is filed as binding. The following applies: read-out: Human α7 K(i).
As for `O=c1cccc2n1C[C@@H]1CNC[C@H]2C1` [Cytisine, cytisine], the Ki was 691 nM.
